Measurements reported in patent US9782399B2, “Pharmaceutical compositions which inhibit FKBP52-mediated regulation of androgen receptor function and methods of using same” (The United States of America, as represented by the …, priority 2009, dated 2017).

Test system: FKBP52-enhanced AR function
Assay: AR-mediated luciferase reporter assay in 52KO MEF cells
Format: cell-based, murine
Details: compound 1 hour, then DHT 16 hours
Protocol: FIG. 5B is a bar graph showing data from an experiment where 52KO MEF cells were treated at 50% confluency with a range of concentrations of Compound 2, and cell numbers were counted by trypan blue exclusion after 24 hours. FIG. 5C depicts Western blots on the same cell lysates from FIG. 5B, with compound 2 concentrations starting at 0, and increasing from about 0.1, 1, 10, to 100 μM.
To further characterize the compounds of interest selected from the yeast library assay, the inventors created a mammalian model system, comprising a receptor-mediated luciferase reporter assay, using in a murine embryonic fibroblast cell line (MEF) which has the gene for FKBP52 knocked out (52KO MEFs). […] To control for specificity and general toxicity, the inventors assessed the effects of the inhibitors on receptor function in the absence of FKBP52. […] The half maximal lethal dose (LD50) was also determined for all cell types used in these studies. The LD50 was determined by performing dose response curves in which the measure of toxicity will be cell death (via trypan blue exclusion). […]
β-galactosidase activity was measured by addition of 100 μl Tropix Gal-Screen assay reagent (Applied Biosystems, Foster City, Calif.) to about 6 μl lysate in an opaque 96-well plate. […]

Compound: Cc1ccc(NC(=O)c2ccccc2C(=O)O)cc1C [Compound 1]
- inhibition of FKBP52-enhanced AR function in mammalian cells: consistent from yeast to mammalian cells
